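Protocol summary: plate cells (96-well), add compound at 5 concentrations, incubate 48 h, interpolate endpoints linearly. GI50 is the concentration that inhibits growth by half.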 Activity calls are given as the source filed them. Cut-off read from the data, not from the text of the source: active = GI50 up to about 1.1 µM and inactive = higher.
What was measured:
Experiment in all cases: DTP human tumour cell line panel, 48 h
MDA-MB-231 = tested on: MDA-MB-231
RPMI-8226 = tested on: RPMI-8226
786-0 = tested on: 786-0
HT-29 = tested on: HT-29
ACHN = tested on: ACHN
A549 = tested on: A549
SF-295 = tested on: SF-295
SW-620 = tested on: SW-620
NCI-H226 = tested on: NCI-H226
UO-31 = tested on: UO-31
HCT-15 = tested on: HCT-15
HCC 2998 = tested on: HCC 2998
MDA-MB-435 = tested on: MDA-MB-435
SK-MEL-2 = tested on: SK-MEL-2
A498 = tested on: A498
MDA-N = tested on: MDA-N
Malme-3M = tested on: Malme-3M
UACC-257 = tested on: UACC-257
LOX IMVI = tested on: LOX IMVI
U-251 = tested on: U-251

Compound	GI50 (MDA-MB-231)	GI50 (RPMI-8226)	GI50 (786-0)	GI50 (HT-29)	GI50 (ACHN)	GI50 (A549)	GI50 (SF-295)	GI50 (SW-620)	GI50 (NCI-H226)	GI50 (UO-31)	GI50 (HCT-15)	GI50 (HCC 2998)	GI50 (MDA-MB-435)	GI50 (SK-MEL-2)	GI50 (A498)	GI50 (MDA-N)	GI50 (Malme-3M)	GI50 (UACC-257)	GI50 (LOX IMVI)	GI50 (U-251)
COc1ccc(N(C(=O)Nc2ccc(Cl)c(Cl)c2)C2c3cccn3C(=O)N2c2ccc(Cl)c(Cl)c2)cc1 (centres undefined)	47.8 µM (inactive)	0.0724 µM (active)	> 100 µM (inactive)	> 100 µM (inactive)	> 100 µM (inactive)	80.5 µM (inactive)	18.3 µM (inactive)	> 100 µM (inactive)	> 100 µM (inactive)	> 100 µM (inactive)	94 µM	56.5 µM (inactive)	28.6 µM (inactive)	> 100 µM (inactive)	27.7 µM (inactive)	87.7 µM (inactive)	> 100 µM (inactive)	> 100 µM (inactive)	15.8 µM (inactive)	> 100 µM (inactive)
O=C1C(c2ccccc2)=[N+]([O-])c2ccccc21	11.7 µM (inactive)	14.9 µM (inactive)	17.7 µM (inactive)	20.2 µM (inactive)	19.2 µM (inactive)	19.9 µM (inactive)	17.4 µM (inactive)	5.83 µM (inactive)	17.1 µM (inactive)	16.2 µM (inactive)	19.7 µM	20 µM (inactive)	3.37 µM (inactive)	14.7 µM (inactive)	17.9 µM (inactive)	3.29 µM (inactive)	17.4 µM (inactive)	13.3 µM (inactive)	3.35 µM (inactive)	10.5 µM (inactive)
O=C(O)c1ccccc1CC1Cc2cc3c(cc2C1)CCC3	> 100 µM (inactive)	88.3 µM (inactive)	> 100 µM (inactive)	> 100 µM (inactive)	> 100 µM (inactive)	95.1 µM (inactive)	> 100 µM (inactive)	> 100 µM (inactive)	> 100 µM (inactive)	> 100 µM (inactive)	99.3 µM	> 100 µM (inactive)	> 100 µM (inactive)	> 100 µM (inactive)	> 100 µM (inactive)	> 100 µM (inactive)	> 100 µM (inactive)	> 100 µM (inactive)	> 100 µM (inactive)	> 100 µM (inactive)
CC(C)(C)OC(=O)NC1CC2(C=C(Br)C(=O)C(Br)=C2)OC1=O (centres undefined)	17.7 µM (inactive)	0.968 µM (active)	2.72 µM (inactive)	5.74 µM (inactive)	4.23 µM (inactive)	20.2 µM (inactive)	16.4 µM (inactive)	2.01 µM (inactive)	18.1 µM (inactive)	5.27 µM (inactive)	7.13 µM	11.6 µM (inactive)	7.71 µM (inactive)	16 µM (inactive)	23.3 µM (inactive)	5.74 µM (inactive)	6.24 µM (inactive)	5.4 µM (inactive)	13 µM (inactive)	17.4 µM (inactive)
C=CCCCCCCCCCOC1C=CC(OC(C)=O)C(COC(C)=O)O1 (centres undefined)	> 100 µM (inactive)	13.2 µM (inactive)	67.8 µM (inactive)	21.4 µM (inactive)	65.5 µM (inactive)	55.7 µM (inactive)	72.9 µM (inactive)	57 µM (inactive)	> 100 µM (inactive)	44.8 µM (inactive)	36.6 µM	39.8 µM (inactive)	50.8 µM (inactive)	38.3 µM (inactive)	> 100 µM (inactive)	44.3 µM (inactive)	35.2 µM (inactive)	29 µM (inactive)	34.2 µM (inactive)	39.6 µM (inactive)
CO[C@H]1O[C@@H]2CO[C@@H](c3ccccc3)O[C@H]2[C@@H]2CC=CCC[C@]12O	> 100 µM (inactive)	23.7 µM (inactive)	61.2 µM (inactive)	40 µM (inactive)	76.4 µM (inactive)	59.8 µM (inactive)	74.5 µM (inactive)	54.1 µM (inactive)	> 100 µM (inactive)	48.2 µM (inactive)	39.6 µM	18.5 µM (inactive)	45.7 µM (inactive)	65.5 µM (inactive)	32.1 µM (inactive)	50.9 µM (inactive)	12.6 µM (inactive)	35.6 µM (inactive)	74.3 µM (inactive)	60.3 µM (inactive)
COc1ccc(SC(C)(SC)c2ccccn2)c(OC)n1 (centres undefined)	> 100 µM (inactive)	23.3 µM (inactive)	66.7 µM (inactive)	42.7 µM (inactive)	> 100 µM (inactive)	79.4 µM (inactive)	49.2 µM (inactive)	> 100 µM (inactive)	42.5 µM (inactive)	> 100 µM (inactive)	54.7 µM	> 100 µM (inactive)	> 100 µM (inactive)	30.8 µM (inactive)	53.3 µM (inactive)	84.1 µM (inactive)	71.1 µM (inactive)	67.3 µM (inactive)	72.1 µM (inactive)	> 100 µM (inactive)
CC(=O)C1=C(N=[N+]=[N-])c2cccc3cccc(c23)C1=O	11.5 µM (inactive)	18.5 µM (inactive)	17.1 µM (inactive)	17.6 µM (inactive)	16 µM (inactive)	24.5 µM (inactive)	22.5 µM (inactive)	18.3 µM (inactive)	24.7 µM (inactive)	14.6 µM (inactive)	15.7 µM	17.6 µM (inactive)	20.6 µM (inactive)	12.4 µM (inactive)	28.8 µM (inactive)	18.9 µM (inactive)	17.3 µM (inactive)	17.9 µM (inactive)	14.7 µM (inactive)	19.2 µM (inactive)
N=C(N)N/N=C/c1c(-c2ccc([N+](=O)[O-])cc2)nc2n1CCS2	6.18 µM (inactive)	38 µM (inactive)	6.67 µM (inactive)	14.5 µM (inactive)	16.5 µM (inactive)	17 µM (inactive)	18 µM (inactive)	2.53 µM (inactive)	20.3 µM (inactive)	15.6 µM (inactive)	18.5 µM	6.32 µM (inactive)	14.8 µM (inactive)	7.35 µM (inactive)	20.4 µM (inactive)	11.9 µM (inactive)	17.9 µM (inactive)	18.5 µM (inactive)	8.26 µM (inactive)	2.3 µM (inactive)
COc1ccc(/C=C2\CN(C)C/C(=C\c3ccc(OC)cc3)C2=O)cc1	> 100 µM (inactive)	> 100 µM (inactive)	28.6 µM (inactive)	> 100 µM (inactive)	> 100 µM (inactive)	> 100 µM (inactive)	> 100 µM (inactive)	> 100 µM (inactive)	> 100 µM (inactive)	> 100 µM (inactive)	> 100 µM	> 100 µM (inactive)	> 100 µM (inactive)	> 100 µM (inactive)	> 100 µM (inactive)	> 100 µM (inactive)	> 100 µM (inactive)	–	> 100 µM (inactive)	> 100 µM (inactive)

Reference: ChEMBL document CHEMBL1201862, “PubChem BioAssay data set” (2004)
